As usually defined, the IC50 is the midpoint of a concentration-inhibition curve.

We go through 17 molecules from US20240262795A1, “PYRAZINE COMPOUNDS AS INHIBITORS OF FLT3” (Biomea Fusion, Inc., priority 2021, published 2024).

Type in all cases: cell-based, human
One test relates to MOLM-13. Put plainly: Proliferation inhibition, CellTiter-Glo, MOLM-13. The settings on record: Homo sapiens, 96 h; MOLM-13 cells, IC50 (4 days), CellTiter-Glo; read-out: MOLM-13 IC50. From the text: (§1) The proliferation inhibitory effect was investigated in human AML cell lines MOLM-13 (AddexBio: C0003003) and MV-4-11 (ATCC: CRL-9591), and CML cell line […] (ATCC: CRL-3343). Molm-13 is heterozygous for FLT3-ITD mutation, while MV4-11 is homozygous for FLT3-ITD (Quentmeier H, et al., Leukemia. 17(1):120-4). […] Cells were maintained in RPMI-1640 medium (ThermoFisher catalog no. 61870036) supplemented with 10% of Heat Inactivated FBS (ThermoFisher catalog no. A31605) and 1% Pen-Strep (ThermoFisher catalog no. 10378016) and cultured at 37° C. in a humidified incubator with 5% CO2. Cell lines were grown by […], and the cells were maintained in a range 70%-80% confluency.
(§2) ATP is present in all metabolically active cells and is considered as a marker for cell viability and proliferation. Metabolic cell activity was determined using the CellTiter-Glo kit (Promega catalog no. G7572), an ATP monitoring system based on the production of luminescence by the reaction of ATP with added UltraGlo® recombinant luciferase (Kawano et al., 2016, PLOS One, 8; 11(7):e0158888), according to the supplier's experimental recommendations. The assay was based on a 96 well plate format.
(§3) Test compounds were dissolved at 10 mM in DMSO (Sigma catalog no. D8418; purity≥99.9%) and stored at −20° C. Eight concentrations of test compound were assessed in duplicate in an individual test occasion in parallel in the selected cell lines. Gilteratinib and FF-10101 were used as reference compounds and tested in duplicate at eight concentrations. 100% of proliferation is represented by the untreated cells (0.2% DMSO).
(§4) On the day of the experiment, cells were quantified with the cell viability analyzer NucleoCounter (Chemometec NC-200) and diluted with fresh medium to obtain the cell density of about 10,000 cells per 200 μL medium. 200 μL of cell suspension were added into wells in the 96 well plate.
(§5) After 2 hours from seeding cells, compounds at desired concentrations were added using a D300e compound dispenser (Life Sciences Tecan D300) with shaking between each compound dispensed. Assay plates were incubated at 37° C. in a humidified incubator with 5% CO2.
(§6) On day 4 (˜96 hrs after compound addition) assay plates were equilibrated at room temperature for approximately 15 min, and then 40 μL/well of the Promega CellTiterGlo® reagent was added. Contents were mixed for 5 min on an orbital shaker to promote cell lysis, and then incubated at room temperature for an additional 10 min in the dark to stabilize the luminescent signal. Luminescence was read by using a GloMlax GM300 plate reader (Promega) using the luminescence for 96 well plate standard protocol.
(§7) Results were analyzed by GraphPad (Prism) and IC50 values were calculated by non-linear regression using four parameter-logistic equation.

In the next test the test system is MV-4-11. Put plainly: Proliferation inhibition, CellTiter-Glo, MV-4-11. Conditions: Homo sapiens, MV4-11, 96 h; MV-4:11 cells, IC50 (4 days), CellTiter-Glo; read-out: MV-4:11 IC50.
Text: as §1, §2, §3, §4, §5, §6, §7
For orientation: In ATP-based viability assays light output follows the ATP content of the culture.

The test system of a further test is K-562. Kind of test: Proliferation inhibition, CellTiter-Glo, K-562. Conditions: Homo sapiens, K562, 96 h; K-562 cells, IC50 (4 days), CellTiter-Glo; read-out: K-562 IC50.
Text: as §1, §2, §3, §4, §5, §6, §7

Take `C=CC(=O)N(C)[C@@H](C)C(=O)NCCc1cccc(Nc2nc(C3CC3)c(CC)nc2C(N)=O)c1` [Compound 208, 5-cyclopropyl-6-ethyl-3-[3-[2-[[(2S)-2-[methyl(prop-2-enoyl)amino]propanoyl]amino]ethyl]anilino]pyrazine-2-carboxamide]: the concentration for half-maximal inhibition (IC50) in the test with MOLM-13 was 10 to 100 nM; in the test with MV-4-11, 1 to 10 nM; with K-562, over 500 nM.
As for `CCc1nc(C(N)=O)c(Nc2cccc(CCNC(=O)[C@H](C)N(C)C(=O)/C=C/CN3CCC3)c2)nc1C` [Compound 202, (S,E)-3-((3-(2-(2-(4-(azetidin-1-yl)-N-methylbut-2-enamido)propanamido)ethyl)phenyl)amino)-6-ethyl-5-methylpyrazine-2-carboxamide], the IC50 with MOLM-13 is 1 to 10 nM; with MV-4-11, 1 to 10 nM; in the test on K-562 it was over 500 nM.
`[2H]C([2H])([2H])N(C/C=C/C(=O)N(C)[C@@H](C)C(=O)NCCc1cccc(Nc2nc(N(C)C(C)C)c(C)nc2C(N)=O)c1)C([2H])([2H])[2H]` [Compound 247, (S,E)-3-((3-(2-(2-(4-(bis(methyl-d3)amino)-N-methylbut-2-enamido)propanamido)ethyl)phenyl)amino)-5-(isopropyl(methyl)amino)-6-methylpyrazine-2-carboxamide]: the IC50 was 1 to 10 nM with MOLM-13, under 1 nM in the test on MV-4-11 and over 500 nM in the test with K-562.
Take `[2H]C([2H])([2H])N(C/C=C/C(=O)N(C)[C@@H](C)C(=O)NCCc1cccc(Nc2nc(C)c(CC)nc2C(N)=O)c1)C([2H])([2H])[2H]` [Compound 164, 3-[3-[2-[[(2S)-2-[[(E)-4-[bis(trideuteriomethyl)amino]but-2-enoyl]-methyl-amino]propanoyl]amino]ethyl]anilino]-6-ethyl-5-methyl-pyrazine-2-carboxamide]: the IC50 is 10 to 100 nM in the test with MOLM-13, 1 to 10 nM with MV-4-11 and over 500 nM with K-562.
Turning to `CCc1nc(C(N)=O)c(Nc2cccc(CCNC(=O)[C@H](C)N(C)C(=O)/C=C/CN(C)C)n2)nc1C1CC1` [Compound 313, 5-cyclopropyl-3-[[6-[2-[[(2S)-2-[[(E)-4-(dimethylamino)but-2-enoyl]-methyl-amino]propanoyl]amino]ethyl]-2-pyridyl]amino]-6-ethyl-pyrazine-2-carboxamide], the IC50 in the test with MOLM-13 is 100 to 500 nM; in the test with MV-4-11, 10 to 100 nM; in the test on K-562 it was over 500 nM.
Consider `Cc1nc(Nc2cccc(CCNC(=O)[C@H](C)N(C)C(=O)/C=C/CN(C)C)c2)c(C(N)=O)nc1C` [Compound 207, 3-[3-[2-[[(2S)-2-[[(E)-4-(dimethylamino)but-2-enoyl]-methyl-amino]propanoyl]amino]ethyl]anilino]-5,6-dimethyl-pyrazine-2-carboxamide], for which the IC50 is 10 to 100 nM with MOLM-13, 10 to 100 nM in the test on MV-4-11 and over 500 nM with K-562.
Turning to `CCc1nc(C(N)=O)c(Nc2cccc(CCNC(=O)[C@H](C)N(C)C(=O)/C=C/CNC)c2)nc1C1CC1` [Compound 224, (S,E)-5-cyclopropyl-6-ethyl-3-((3-(2-(2-(N-methyl-4-(methylamino)but-2-enamido)propanamido)ethyl)phenyl)amino)pyrazine-2-carboxamide], the IC50 was 1 to 10 nM with MOLM-13, under 1 nM in the test with MV-4-11 and over 500 nM with K-562.
Regarding `Cc1nc(C(N)=O)c(Nc2cccc(CCNC(=O)[C@H](C)N(C)C(=O)/C=C/CN3CCC3)c2)nc1N(C)C` [Compound 230, (S,E)-3-((3-(2-(2-(4-(azetidin-1-yl)-N-methylbut-2-enamido)propanamido)ethyl)phenyl)amino)-5-(dimethylamino)-6-methylpyrazine-2-carboxamide], the IC50 with MOLM-13 was 1 to 10 nM; with MV-4-11 it was under 1 nM; in the test with K-562 it was over 500 nM.
On to `C=CC(=O)N(C)[C@@H](C)C(=O)NCCc1cccc(Nc2nc(N(C)C)c(C)nc2C(N)=O)c1` [Compound 218, 5-(dimethylamino)-6-methyl-3-[3-[2-[[(2S)-2-[methyl(prop-2-enoyl)amino]propanoyl]amino]ethyl]anilino]pyrazine-2-carboxamide], for which the IC50 is 10 to 100 nM with MOLM-13, 1 to 10 nM in the test on MV-4-11 and over 500 nM in the test on K-562.
The matching figures for `Cc1nc(C(N)=O)c(Nc2cccc(CCNC(=O)C(C)N(C)C(=O)/C=C/CN(C)C)c2)nc1C1CC1` (stereo not drawn) [Compound 211, 5-cyclopropyl-3-[3-[2-[2-[[(E)-4-(dimethylamino)but-2-enoyl]-methyl-amino]propanoylamino]ethyl]anilino]-6-methyl-pyrazine-2-carboxamide]: 10 to 100 nM, 1 to 10 nM and over 500 nM.
For the molecule `CCc1nc(C(N)=O)c(Nc2cccc(CCNC(=O)C3(N(C)C(=O)/C=C/CN(C)C)CC3)c2)nc1C1CC1` [Compound 220, 5-cyclopropyl-3-[3-[2-[[1-[[(E)-4-(dimethylamino)but-2-enoyl]-methyl-amino]cyclopropanecarbonyl]amino]ethyl]anilino]-6-ethyl-pyrazine-2-carboxamide], the IC50 was 10 to 100 nM in the test with MOLM-13, 1 to 10 nM with MV-4-11 and over 500 nM in the test with K-562.
The matching figures for `C=CC(=O)N(C)[C@H](C)C(=O)NCCc1cccc(Nc2nc(C3CC3)c(CC)nc2C(N)=O)c1` [Compound 236, 5-cyclopropyl-6-ethyl-3-[3-[2-[[(2R)-2-[methyl(prop-2-enoyl)amino]propanoyl]amino]ethyl]anilino]pyrazine-2-carboxamide]: 10 to 100 nM, 10 to 100 nM and over 500 nM.
Regarding `C=CC(=O)N(C)[C@@H](C)C(=O)NCCc1cccc(Nc2nc(C3CC3)c(C)nc2C(N)=O)c1` [Compound 222, 5-cyclopropyl-6-methyl-3-[3-[2-[[(2S)-2-[methyl(prop-2-enoyl)amino]propanoyl]amino]ethyl]anilino]pyrazine-2-carboxamide], the IC50 was 10 to 100 nM in the test with MOLM-13, 10 to 100 nM with MV-4-11 and over 500 nM in the test with K-562.
As to `C=CC(=O)N(C)[C@@H](C)C(=O)NCCc1cccc(Nc2nc(C)c(CC)nc2C(N)=O)c1` [Compound 216, 6-ethyl-5-methyl-3-[3-[2-[[(2S)-2-[methyl(prop-2-enoyl)amino]propanoyl]amino]ethyl]anilino]pyrazine-2-carboxamide], the IC50 in the test on MOLM-13 is 10 to 100 nM; with MV-4-11 it was 10 to 100 nM; in the test with K-562 it was over 500 nM.
As for `C=CC(=O)N(C)CC(=O)NC[C@H](C)c1cccc(Nc2nc(CC(C)C)c(CC)nc2C(N)=O)c1` [Compound 512, (R)-6-ethyl-5-isobutyl-3-((3-(1-(2-(N-methylacrylamido)acetamido)propan-2-yl)phenyl)amino) pyrazine-2-carboxamide], the IC50 was over 500 nM with MOLM-13, 10 to 100 nM in the test with MV-4-11 and over 500 nM in the test with K-562.
Regarding `CCc1nc(C(N)=O)c(Nc2cccc(CCNC(=O)C3(N(C)C(=O)/C=C/CN(C)C)CC3)c2)nc1C` [Compound 223, 3-[3-[2-[[1-[[(E)-4-(dimethylamino)but-2-enoyl]-methyl-amino]cyclopropanecarbonyl]amino]ethyl]anilino]-6-ethyl-5-methyl-pyrazine-2-carboxamide], the IC50 in the test with MOLM-13 is 10 to 100 nM; in the test on MV-4-11, 1 to 10 nM; with K-562, over 500 nM.
Turning to `CCc1nc(Nc2cccc(CCNC(=O)[C@H](C)N(C)C(=O)/C=C/CN(C)C)c2)c(C(N)=O)nc1CC` [Compound 243, (S,E)-3-((3-(2-(2-(4-(dimethylamino)-N-methylbut-2-enamido)propanamido)ethyl)phenyl)amino)-5,6-diethylpyrazine-2-carboxamide], the results for the IC50 in the test on MOLM-13, with MV-4-11 and in the test with K-562 were 1 to 10 nM, under 1 nM and over 500 nM, respectively.
